Experimental data as given in patent US7563793B2, “Pyrrolo[1,2-a]quinoxalin-5-(4H)-yl)sulfonyls and carbonyls and their use as estrogenic agents” (Wyeth, priority 2004, dated 2009).
Read-outs that look alike come from different tables or passages of the source.

Assays:
Format in all cases: cell-based, human
IL-6 = IL-6 assay (ELISA) in Ad5-wt-ER infected HAECT-1 cells (IL-1β induced); conditions: for Emax: HAECT1, relative to maximal inhibition observed with E2, read-out: IL-6 Efficacy; for IL-6 Efficacy: relative to maximal inhibition observed with E2
Protocol: (§1) After four hours, cells were washed with EBM-BSA and incubated overnight in the same medium. […] After two hours, cells were washed and incubated at 34° C. for 1 hour. […] Control (no ER infection) cells were processed as above without Ad5-wt-hERα virus infection. […] Cells were subsequently washed with 300 μl of Dulbecco's phosphate buffered saline and lysed in 50 μl of Cell Culture Lysis Reagent (Promega). Luciferase was determined on a Wallac Victor^2 Luminometer (Gaithersburg, Md.) using 10 μl of lysate and mixing with 100 lμof Promega Luciferase Assay reagent. […] For IC50 and EC50 calculations, mean IL-6, luciferase or CK values versus log10 of the compound concentration were fitted to a four parameter logistic equation. The IC50/EC50 value, ‘Hill slope’, upper and lower limits of the curve were iteratively estimated.

creatine kinase = test: Creatine kinase assay in Ad5-wt-ER infected HAECT-1 cells; conditions: for EC50 / Emax: Homo sapiens; for EC50: HAECT1, CK stimulation, N/O = activity not observed at concentrations tested, read-out: CK IC50; for Emax: HAECT1, relative to maximal stimulation observed with E2, read-out: CK Efficacy; for CK Efficacy: relative to maximal stimulation observed with E2
Protocol: as §1

ER/Nf-kB = test: ER/NF-κB luciferase reporter assay in Ad5-wt-ER infected HAECT-1 cells (IL-1β induced); conditions: for ER/Nf-kB Efficacy: relative to maximal inhibition observed with E2
Protocol: as §1

Compound	IC50 (IL-6; Homo sapiens, HAECT1)	EC50 (creatine kinase)	Emax (IL-6; Homo sapiens)	Emax (creatine kinase)	other results
C[C@H]1c2cccn2-c2ccc(Br)cc2N1C(=O)c1cccc(O)c1 [107 (S), 3-{[(4S)-7-bromo-4-methylpyrrolo[1,2-a]quinoxalin-5(4H)-yl]carbonyl}phenol]	1060 nM		66%		
CC[C@H]1c2cccn2-c2ccc(Br)cc2N1C(=O)c1ccc(O)cc1 [111 (S), 4-{[(4S)-7-bromo-4-ethylpyrrolo[1,2-a]quinoxalin-5(4H)-yl]carbonyl}phenol]	1090 nM		65%		
CC(C)(C)[C@@H]1c2cccn2-c2ccc(Br)cc2N1C(=O)c1cccc(O)c1 [115 (R), 3-{[(4R)-7-bromo-4-tert-butylpyrrolo[1,2-a]quinoxalin-5(4H)-yl]carbonyl}phenol]	647 nM		82%		
CC(C)(C)[C@H]1c2cccn2-c2ccc(Br)cc2N1C(=O)c1cccc(O)c1 [115 (S), 3-{[(4S)-7-bromo-4-tert-butylpyrrolo[1,2-a]quinoxalin-5(4H)-yl]carbonyl}phenol]	455 nM		94%		
C[C@H]1c2cccn2-c2ccc(F)cc2N1C(=O)c1ccc(O)cc1 [123 (S), 4-{[(4S)-7-fluoro-4-methylpyrrolo[1,2-a]quinoxalin-5(4H)-yl]carbonyl}phenol]	606 nM		47%		
CC[C@H]1c2cccn2-c2ccc(Cl)cc2N1C(=O)c1ccc(O)cc1O [125 (S), 4-{[(4S)-7-chloro-4-ethylpyrrolo[1,2-a]quinoxalin-5(4H)-yl]carbonyl}benzene-1,3-diol]	1100 nM	68 nM	81%	15%	
CC[C@H]1c2cccn2-c2ccc(F)cc2N1C(=O)c1cccc(O)c1 [127 (S), 3-{[(4S)-4-ethyl-7-fluoropyrrolo[1,2-a]quinoxalin-5(4H)-yl]carbonyl}phenol]	1330 nM	33 nM	41%	33%	
C[C@@H]1c2cccn2-c2ccc(F)cc2N1C(=O)c1cccc(O)c1 [131 (R), 3-{[(4R)-4-methyl-7-fluoropyrrolo[1,2-a]quinoxalin-5(4H)-yl]carbonyl}phenol]	179 nM		103%		
C[C@H]1c2cccn2-c2ccc(F)cc2N1C(=O)c1cccc(O)c1 [131 (S), 3-{[(4S)-4-methyl-7-fluoropyrrolo[1,2-a]quinoxalin-5(4H)-yl]carbonyl}phenol]	1460 nM		69%		
CC1c2ccc(F)n2-c2cc(F)c(F)cc2N1S(=O)(=O)c1ccc(O)cc1 (centres unmarked) [Example 13, 4-[(1,7,8-trifluoro-4-methylpyrrolo[1,2-a]quinoxalin-5-(4H)-yl)sulfonyl]phenol]					IC50 (ER/Nf-kB): 20 nM; ER/Nf-kB Efficacy (ER/Nf-kB): 104%
CC1(C)c2cccn2-c2cc(F)c(F)cc2N1S(=O)(=O)c1ccc(O)cc1 [Example 15, 4-[(7,8-difluoro-4,4-dimethylpyrrolo[1,2-a]quinoxalin-5-(4H)-yl)sulfonyl]phenol]					IC50 (ER/Nf-kB): 150 nM; ER/Nf-kB Efficacy (ER/Nf-kB): 105%
CCC1c2ccc(F)n2-c2ccc(F)cc2N1S(=O)(=O)c1ccc(O)cc1 (centres unmarked) [Example 23, 4-[(4-ethyl-1,7-difluoropyrrolo[1,2-a]quinoxalin-5-(4H)-yl)sulfonyl]phenol]					IC50 (IL-6): 6.6 nM; IL-6 Efficacy (IL-6): 162%; CK Efficacy (creatine kinase): 52%
CCC1c2cccn2-c2ccc(F)cc2N1S(=O)(=O)c1ccc(O)c(Cl)c1 (centres unmarked) [Example 31, 2-chloro-4-[(4-ethyl-7-fluoropyrrolo[1,2-a]quinoxalin-5-(4H)-yl)sulfonyl]phenol]					IC50 (ER/Nf-kB): 364 nM; ER/Nf-kB Efficacy (ER/Nf-kB): 104%
Cc1cc(S(=O)(=O)N2c3cc(F)ccc3-n3cccc3C2C)ccc1O (centres unmarked) [Example 51, 4-[(7-fluoro-4-methylpyrrolo[1,2-a]quinoxalin-5-(4H)-yl)sulfonyl]-2-methylphenol]					IC50 (ER/Nf-kB): 155 nM; ER/Nf-kB Efficacy (ER/Nf-kB): 66%
CC1c2cccn2-c2ccc(Br)cc2N1S(=O)(=O)c1ccc(O)cc1 (centres unmarked) [Example 52, 4-[(7-bromo-4-methylpyrrolo[1,2-a]quinoxalin-5-(4H)-yl)sulfonyl]phenol]					IC50 (ER/Nf-kB): 11 nM; ER/Nf-kB Efficacy (ER/Nf-kB): 100%
CCC1c2cccn2-c2ccc(C(F)(F)F)cc2N1S(=O)(=O)c1ccc(O)cc1 (centres unmarked) [Example 56, 4-{[4-ethyl-7-(trifluoromethyl)pyrrolo[1,2-a]quinoxalin-5-(4H)-yl]sulfonyl}phenol]					IC50 (ER/Nf-kB): 79 nM; ER/Nf-kB Efficacy (ER/Nf-kB): 107%
CCC1c2cccn2-c2cc(F)c(F)cc2N1S(=O)(=O)c1ccc(OS(N)(=O)=O)cc1 (centres unmarked) [Example 105, 4-{4-ethyl-7,8-difluoropyrrolo[1,2-a]quinoxalin-5(4H)-yl]sulfonyl}phenyl sulfamate]					IC50 (IL-6): 2 nM; IL-6 Efficacy (IL-6): 116%; CK Efficacy (creatine kinase): 49%
CCC1c2cccn2-c2ccc(Br)cc2N1C(=O)c1ccc(O)cc1 (centres unmarked) [Example 110, 4-[(7-bromo-4-ethylpyrrolo[1,2-a]quinoxalin-5(4H)-yl)carbonyl]phenol]	369 nM		78%		
CC(C)(C)C1c2cccn2-c2ccc(Br)cc2N1C(=O)c1cccc(O)c1 (centres unmarked) [Example 114, 3-[(7-bromo-4-tert-butylpyrrolo[1,2-a]quinoxalin-5(4H)-yl)carbonyl]phenol]	441 nM		38%		
CC(C)(C)C1c2cccn2-c2ccc(Br)cc2N1C(=O)c1ccc(O)cc1 (centres unmarked) [Example 116, 4-[(7-bromo-4-tert-butylpyrrolo[1,2-a]quinoxalin-5(4H)-yl)carbonyl]phenol]	207 nM		90%		

More lines, in order of falling IC50 (IL-6; Homo sapiens, HAECT1), values ahead:

IC50 (IL-6; Homo sapiens, HAECT1)	EC50 (creatine kinase)	Compound	Emax (IL-6; Homo sapiens)	Emax (creatine kinase)	other results
152 nM	207 nM	CCC1c2cccn2-c2ccc(Br)cc2N1C(=O)c1cccc(O)c1 (centres unmarked) [Example 112, 3-[(7-bromo-4-ethylpyrrolo[1,2-a]quinoxalin-5(4H)-yl)carbonyl]phenol]	88%	21%	
101 nM		CC[C@H]1c2cccn2-c2ccc(F)cc2N1C(=O)c1ccc(O)cc1 [119 (S), 4-{[(4S)-4-ethyl-7-fluoropyrrolo[1,2-a]quinoxalin-5(4H)-yl]carbonyl}phenol]	79%		
72 nM	64 nM	CC[C@H]1c2cccn2-c2ccc(F)cc2N1C(=O)c1ccc(O)cc1O [121 (S), 4-{[(4S)-4-ethyl-7-fluoropyrrolo[1,2-a]quinoxalin-5(4H)-yl]carbonyl}benzene-1,3-diol]	95%	32%	
64 nM		CC[C@@H]1c2ccc(C#N)n2-c2ccc(F)cc2N1C(=O)c1ccc(O)cc1 [Example 128, (4R)-4-ethyl-7-fluoro-5-(4-hydroxybenzoyl)-4,5-dihydropyrrolo[1,2-a]quinoxaline-1-carbonitrile]	111%		
53 nM	18 nM	CC1c2cccn2-c2ccc(Br)cc2N1C(=O)c1ccc(O)cc1 (centres unmarked) [Example 108, 4-[(7-bromo-4-methylpyrrolo[1,2-a]quinoxalin-5(4H)-yl)carbonyl]phenol]	118%	7%	
46 nM	117 nM	CC[C@@H]1c2cccn2-c2ccc(Br)cc2N1C(=O)c1ccc(O)cc1 [111 (R), 4-{[(4R)-7-bromo-4-ethylpyrrolo[1,2-a]quinoxalin-5(4H)-yl]carbonyl}phenol]	87%	40%	
42 nM	398 nM	CC1c2cccn2-c2ccc(Br)cc2N1C(=O)c1ccc(O)cc1O (centres unmarked) [Example 109, 4-[(7-bromo-4-methylpyrrolo[1,2-a]quinoxalin-5(4H)-yl)carbonyl]benzene-1,3-diol]	128%	40%	
29 nM	636 nM	CC[C@H]1c2ccc(C#N)n2-c2ccc(F)cc2N1C(=O)c1ccc(O)cc1 [Example 129, (4S)-4-ethyl-7-fluoro-5-(4-hydroxybenzoyl)-4,5-dihydropyrrolo[1,2-a]quinoxaline-1-carbonitrile]	-77%	-7%	
10 nM		CC1c2cccn2-c2ccc(Br)cc2N1C(=O)c1cccc(O)c1 (centres unmarked) [Example 106, 3-[(7-bromo-4-methylpyrrolo[1,2-a]quinoxalin-5(4H)-yl)carbonyl]phenol]	54%		
9.5 nM	25 nM	CCC1c2cccn2-c2ccc(Br)cc2N1C(=O)c1ccc(O)cc1O (centres unmarked) [Example 113, 4-[(7-bromo-4-ethylpyrrolo[1,2-a]quinoxalin-5(4H)-yl)carbonyl]benzene-1,3-diol]	101%	28%	
9 nM	33 nM	CC(C)(C)C1c2cccn2-c2ccc(Br)cc2N1C(=O)c1ccc(O)cc1O (centres unmarked) [Example 117, 4-[(7-bromo-4-tert-butylpyrrolo[1,2-a]quinoxalin-5(4H)-yl)carbonyl]benzene-1,3-diol]	90%	42%	
8 nM	11 nM	CC[C@@H]1c2cccn2-c2ccc(F)cc2N1C(=O)c1ccc(O)cc1 [119 (R), 4-{[(4R)-4-ethyl-7-fluoropyrrolo[1,2-a]quinoxalin-5(4H)-yl]carbonyl}phenol]	95%	27%	
1.6 nM	13 nM	CC[C@@H]1c2cccn2-c2ccc(F)cc2N1C(=O)c1ccc(O)cc1O [121 (R), 4-{[(4R)-4-ethyl-7-fluoropyrrolo[1,2-a]quinoxalin-5(4H)-yl]carbonyl}benzene-1,3-diol]	108%	36%	
